From ChEMBL document CHEMBL1201862, “PubChem BioAssay data set” (2004)
The source made the active and inactive calls.

Tests used:
Insulin-degrading enzyme [1] = target: T1, Insulin-degrading enzyme (Homo sapiens, UniProt P14735); test: cellular IDE activation of Abeta substrate cleavage – fluorescence polarization, HEK cells, dose response (AID 588439); assay type: functional, cell-based
HEK293 [2] = test: optical interference in Abeta FP readout, dose response, artefact control for IDE activator project, biochemical, fluorescence polarization (AID 588442); assay type: functional, cell-based; settings: Homo sapiens
Insulin-degrading enzyme [3] = target: T1, Insulin-degrading enzyme; test: recombinant IDE activation, cell-free – biochemical, fluorescence polarization, counter-screen for IDE activator project, dose response (AID 588681)
HEK293 [4] = test: membrane integrity loss in HEK cells – cell-based, fluorescence, cytotoxicity control for IDE activator project, dose response (AID 588440); assay type: functional; settings: Homo sapiens;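 note: cytotoxicity by LDH release measuring loss of membrane integrity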
Caspase-7 = target: T2, Caspase-7 (Homo sapiens, UniProt P55210); test: potency of procaspase-7 enzyme activation – biochemical, absorbance, human, dual procaspase-3/-7 activator project, dose response (AID 504330)
T2 sequence (P55210 whole entry): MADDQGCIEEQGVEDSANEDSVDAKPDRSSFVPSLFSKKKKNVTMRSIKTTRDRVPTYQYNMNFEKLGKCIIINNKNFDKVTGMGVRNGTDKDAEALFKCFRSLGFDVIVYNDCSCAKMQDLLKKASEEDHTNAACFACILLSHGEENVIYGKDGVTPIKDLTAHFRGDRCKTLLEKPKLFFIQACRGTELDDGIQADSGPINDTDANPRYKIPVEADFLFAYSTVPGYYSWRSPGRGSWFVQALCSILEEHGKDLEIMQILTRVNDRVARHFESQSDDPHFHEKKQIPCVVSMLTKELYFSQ

Beta Lactamase = Beta Lactamase (Pseudomonas aeruginosa, UniProt Q932Y6); test: BLA reporter interference, concentration series – BLA reporter cells, FRET fluorescence, artefact control for TLR9-MyD88 binding inhibitor project, dose response (AID 588341); assay type: cell-based;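 note: cell based assay in CHO-K1 cells stably expressing beta-lactamase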
CHO = CHO cell viability loss, potency – luminescence, cytotoxicity control for TLR9-MyD88 binding inhibitor project, dose response (AID 588339); assay type: functional, cell-based, hamster; settings: Cricetulus griseus;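 note: CHO cells stably coexpressing TLR9 and MyD88 fusions from primary screen; compound exposure lasted 48 hours before viability readout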
Caspase-3 = target: T3, Caspase-3 (Homo sapiens, UniProt P42574); test: activators of human procaspase-3 D3A mutant – biochemical, absorbance, PC-3 D3A mutant, counter-screen for dual procaspase-3/7 activator project, dose response (AID 504328)
T3 sequence (P42574 whole entry): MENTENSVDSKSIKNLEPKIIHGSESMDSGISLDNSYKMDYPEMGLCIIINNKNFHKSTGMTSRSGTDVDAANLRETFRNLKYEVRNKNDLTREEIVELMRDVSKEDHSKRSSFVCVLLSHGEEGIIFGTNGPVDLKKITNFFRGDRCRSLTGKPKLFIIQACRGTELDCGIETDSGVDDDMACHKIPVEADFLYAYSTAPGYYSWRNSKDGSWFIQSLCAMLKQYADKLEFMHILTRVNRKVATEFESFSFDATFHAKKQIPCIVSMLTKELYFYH

[5] = target: T4, Orexin/Hypocretin receptor type 1 (Homo sapiens, UniProt O43613); test: Homogeneous Time Resolved Fluorescence (HTRF)-based cell-based high throughput dose response assay for antagonists of the orexin 1 receptor (OX1R; HCRTR1). [Related pubchem assays (depositor defined):AID434989, AID435008, AID463079, AID485270, AID492963, AID492964, AID492965, AID493232, AID504717, AID504718]; assay type: functional
T4 sequence (O43613 whole entry): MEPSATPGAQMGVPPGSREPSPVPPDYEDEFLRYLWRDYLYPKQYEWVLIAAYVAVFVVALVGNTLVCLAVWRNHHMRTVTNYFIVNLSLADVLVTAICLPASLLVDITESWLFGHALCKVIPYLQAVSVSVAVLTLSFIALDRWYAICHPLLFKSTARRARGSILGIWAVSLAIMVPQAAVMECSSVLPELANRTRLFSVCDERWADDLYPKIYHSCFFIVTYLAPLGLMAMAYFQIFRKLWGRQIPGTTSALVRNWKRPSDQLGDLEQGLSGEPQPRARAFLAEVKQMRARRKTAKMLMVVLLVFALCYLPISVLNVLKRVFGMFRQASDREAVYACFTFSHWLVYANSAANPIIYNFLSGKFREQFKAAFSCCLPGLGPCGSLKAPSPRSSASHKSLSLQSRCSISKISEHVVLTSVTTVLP

Orexin receptor type 2 [6] = target: T5, Orexin receptor type 2 (Homo sapiens, UniProt O43614); test: Counterscreen assay for antagonists of the orexin 1 receptor (OX1R; HCRTR1): Homogeneous Time Resolved Fluorescence (HTRF)-based cell-based dose response assay for antagonists of the orexin 2 receptor (OX2R; HCRTR2), run by assay provider.; assay type: functional
CHO-K1 = test: (§1) Counterscreen for antagonists of the orexin 1 receptor (OX1R; HCRTR1): Homogeneous time resolved fluorescence (HTRF)-based cell-based dose response assay to identify antagonists of the parental CHO-K1 cell line. [Related pubchem assays (depositor defined):AID434989, AID435008, AID463079, AID485270, AID492963, AID492964, AID492965, AID493232, AID504699, AID504701]; assay type: functional; settings: Cricetulus griseus
[7] = as §1, with “Fluorescence-based” for “Homogeneous time resolved fluorescence (HTRF)-based”, “cell-based high throughput” for “cell-based”, “CHO” for “CHO-K1”; assay type: functional
[8] = target: T4, Orexin/Hypocretin receptor type 1; test: Fluorescence-based cell-based high throughput dose response assay for antagonists of the orexin 1 receptor (OX1R; HCRTR1). [Related pubchem assays (depositor defined):AID434989, AID435008, AID463079, AID485270, AID492963, AID492964, AID492965, AID493232, AID504717, AID504718]; assay type: functional
Orexin receptor type 2 [9] = target: T5, Orexin receptor type 2; test: Counterscreen assay for antagonists of the orexin 1 receptor (OX1R; HCRTR1): Fluorescence-based cell-based dose response assay for antagonists of the orexin 2 receptor (OX2R; HCRTR2), run by assay provider.; assay type: functional
[10] = reduction of Shn3 3'UTR-driven luciferase in osteoblasts – cell-based, Clone20 osteoblasts, firefly luciferase, cherry-picked, dose response (AID 624132); assay type: functional;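 note: firefly luciferase luminescence from reporter carrying the Shn3 3'UTR in osteoblasts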
[11] = Vero E6 cell cytotoxicity, dose response, cytotoxicity control for non-replicating M. tuberculosis project, secondary assay (AID 492998); assay type: functional, VeroE6; settings: Vero C1008
cells = assay type: functional
[12] = A Cell Based Secondary Assay to Explore Cytotoxicity in HepG2 Cells of Compounds that Modulate Mycobacterium tuberculosis in Media Containing Glycerol versus Media without Glycerol (2).; assay type: functional
[13] = THP-1 cell cytotoxicity, dose response, cytotoxicity control for non-replicating M. tuberculosis project (AID 489025); assay type: functional
[14] = microbe, parasite or virus in culture; assay type: functional; settings: Mycobacterium tuberculosis
[15] = A Cell Based Secondary Assay to Explore Cytotoxicity in THP-1 Cells of Compounds that Modulate Mycobacterium tuberculosis in Media Containing Glycerol versus Media without Glycerol (2).; assay type: functional
[16] = Vero cell cytotoxicity, cytotoxicity control for M. tuberculosis inhibitor project, purified and synthesized samples, set 3 (AID 504684); assay type: functional
[17] = non-specific 3'UTR reporter inhibition in Clone20-Shn3RL – cell-based, Renilla luciferase, cherry-picked, counter-screen for Shn3 inhibitor project, dose response (AID 624133); assay type: functional
[18] = target: Melanin-concentrating hormone receptor 1 (Homo sapiens, UniProt Q99705); test: Late-stage fluorescence-based counterscreen for antagonists of the G-protein coupled receptor 7 (GPR7): cell-based dose response assay to identify antagonists of the melanin-concentrating hormone receptor 1 (MCHR1) Set 6.; assay type: functional
[19] = target: Neuropeptides B/W receptor type 1 (Homo sapiens, UniProt P48145); test: human NPBW1 receptor blockade, IC50 – cell-based, fluorescence, dose response, set 6, late-stage follow-up (AID 588583); assay type: functional
[20] = target: DNA dC->dU-editing enzyme APOBEC-3G (Homo sapiens, UniProt Q9HC16); test: inhibition of APOBEC3G ssDNA deamination – biochemical, fluorescence, single-stranded DNA substrate, SAR follow-up (AID 602136); assay type: functional; settings: read-out: IC50_Mean
[21] = target: DNA dC->dU-editing enzyme APOBEC-3A (Homo sapiens, UniProt P31941); test: SAR analysis of small molecule inhibitors of APOBEC3A DNA Deaminase via a fluorescence-based single-stranded DNA deaminase assay.; assay type: functional; settings: read-out: IC50_Mean
[22] = target: Cyclin-dependent kinase 19 (Homo sapiens, UniProt Q9BWU1); test: Navigating the Kinome. Panel member name: CDC2L6; assay type: functional
[23] = target: Cell division cycle 7-related protein kinase (Homo sapiens, UniProt O00311); assay type: functional;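 note: value obtained from a kinome-wide kinase panel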
[24] = target: Cyclin-dependent kinase 8 (Homo sapiens, UniProt P49336); test: Navigating the Kinome. Panel member name: CDK8; assay type: functional
[25] = target: Serine/threonine-protein kinase TAO1 (Homo sapiens, UniProt Q7L7X3); assay type: functional
[26] = target: Casein kinase I isoform alpha (Homo sapiens, UniProt P48729); assay type: functional
[27] = target: Cyclin-dependent kinase 5 (Homo sapiens, UniProt Q00535); assay type: functional;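 note: CDK5 measured as one member of a kinase profiling panel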
Sequence of Cyclin-dependent kinase 5 (Q00535 whole entry): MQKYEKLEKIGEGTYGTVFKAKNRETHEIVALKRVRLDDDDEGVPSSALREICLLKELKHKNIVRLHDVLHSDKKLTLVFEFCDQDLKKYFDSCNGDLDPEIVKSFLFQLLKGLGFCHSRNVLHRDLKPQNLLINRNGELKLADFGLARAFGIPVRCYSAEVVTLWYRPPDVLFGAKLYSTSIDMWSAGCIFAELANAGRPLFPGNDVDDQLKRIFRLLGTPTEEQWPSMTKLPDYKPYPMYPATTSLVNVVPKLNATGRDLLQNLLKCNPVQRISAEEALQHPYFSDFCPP

T5 sequence (O43614 whole entry): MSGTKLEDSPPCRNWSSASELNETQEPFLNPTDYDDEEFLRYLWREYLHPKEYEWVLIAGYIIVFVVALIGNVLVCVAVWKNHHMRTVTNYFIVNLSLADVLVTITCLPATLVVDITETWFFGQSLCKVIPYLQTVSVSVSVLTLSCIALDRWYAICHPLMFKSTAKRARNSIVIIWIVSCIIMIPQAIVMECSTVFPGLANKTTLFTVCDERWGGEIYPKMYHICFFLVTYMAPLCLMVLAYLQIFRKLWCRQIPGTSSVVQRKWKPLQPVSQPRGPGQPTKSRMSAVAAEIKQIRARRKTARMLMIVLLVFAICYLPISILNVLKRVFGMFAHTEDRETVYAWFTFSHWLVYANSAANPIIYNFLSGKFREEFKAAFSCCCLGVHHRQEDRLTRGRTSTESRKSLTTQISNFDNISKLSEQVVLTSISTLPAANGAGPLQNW
T1 sequence (P14735 whole entry): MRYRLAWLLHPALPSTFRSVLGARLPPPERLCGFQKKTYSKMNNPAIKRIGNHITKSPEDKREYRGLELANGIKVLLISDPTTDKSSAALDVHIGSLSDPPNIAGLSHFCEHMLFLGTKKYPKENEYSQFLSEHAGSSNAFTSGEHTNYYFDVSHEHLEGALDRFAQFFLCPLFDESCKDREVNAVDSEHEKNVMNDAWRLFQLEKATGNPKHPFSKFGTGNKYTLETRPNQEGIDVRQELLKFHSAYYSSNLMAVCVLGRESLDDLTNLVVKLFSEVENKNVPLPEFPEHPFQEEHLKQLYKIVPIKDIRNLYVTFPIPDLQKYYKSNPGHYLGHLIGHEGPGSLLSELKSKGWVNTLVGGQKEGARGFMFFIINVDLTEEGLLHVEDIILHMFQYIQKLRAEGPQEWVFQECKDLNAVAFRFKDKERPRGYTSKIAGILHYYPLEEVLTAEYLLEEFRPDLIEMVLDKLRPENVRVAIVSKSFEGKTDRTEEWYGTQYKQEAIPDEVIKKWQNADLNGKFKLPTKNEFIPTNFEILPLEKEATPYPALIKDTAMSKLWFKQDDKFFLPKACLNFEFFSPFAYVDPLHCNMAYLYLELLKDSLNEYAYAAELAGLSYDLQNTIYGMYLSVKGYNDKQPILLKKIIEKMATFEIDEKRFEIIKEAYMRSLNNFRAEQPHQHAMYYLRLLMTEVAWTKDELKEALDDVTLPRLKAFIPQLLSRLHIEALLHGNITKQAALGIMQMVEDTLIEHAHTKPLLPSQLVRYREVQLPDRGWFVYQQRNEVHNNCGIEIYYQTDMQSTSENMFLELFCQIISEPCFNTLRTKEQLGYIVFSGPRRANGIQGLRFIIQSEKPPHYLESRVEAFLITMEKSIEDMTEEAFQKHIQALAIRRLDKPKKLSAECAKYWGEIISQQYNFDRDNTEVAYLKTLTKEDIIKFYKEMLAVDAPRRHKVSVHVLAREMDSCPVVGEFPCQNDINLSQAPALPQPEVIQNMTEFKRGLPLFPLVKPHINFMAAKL
Sequence of Melanin-concentrating hormone receptor 1 (Q99705 whole entry): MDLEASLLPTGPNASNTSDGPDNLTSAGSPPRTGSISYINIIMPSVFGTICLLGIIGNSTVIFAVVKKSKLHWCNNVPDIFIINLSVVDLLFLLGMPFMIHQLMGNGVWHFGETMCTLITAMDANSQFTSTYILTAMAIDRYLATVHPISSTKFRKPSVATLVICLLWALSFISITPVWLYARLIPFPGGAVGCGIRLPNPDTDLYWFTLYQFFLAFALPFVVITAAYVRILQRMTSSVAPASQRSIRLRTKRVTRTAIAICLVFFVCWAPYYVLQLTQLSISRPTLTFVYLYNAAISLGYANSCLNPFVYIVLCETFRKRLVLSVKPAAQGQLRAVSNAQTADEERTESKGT
Sequence of Cell division cycle 7-related protein kinase (O00311 whole entry): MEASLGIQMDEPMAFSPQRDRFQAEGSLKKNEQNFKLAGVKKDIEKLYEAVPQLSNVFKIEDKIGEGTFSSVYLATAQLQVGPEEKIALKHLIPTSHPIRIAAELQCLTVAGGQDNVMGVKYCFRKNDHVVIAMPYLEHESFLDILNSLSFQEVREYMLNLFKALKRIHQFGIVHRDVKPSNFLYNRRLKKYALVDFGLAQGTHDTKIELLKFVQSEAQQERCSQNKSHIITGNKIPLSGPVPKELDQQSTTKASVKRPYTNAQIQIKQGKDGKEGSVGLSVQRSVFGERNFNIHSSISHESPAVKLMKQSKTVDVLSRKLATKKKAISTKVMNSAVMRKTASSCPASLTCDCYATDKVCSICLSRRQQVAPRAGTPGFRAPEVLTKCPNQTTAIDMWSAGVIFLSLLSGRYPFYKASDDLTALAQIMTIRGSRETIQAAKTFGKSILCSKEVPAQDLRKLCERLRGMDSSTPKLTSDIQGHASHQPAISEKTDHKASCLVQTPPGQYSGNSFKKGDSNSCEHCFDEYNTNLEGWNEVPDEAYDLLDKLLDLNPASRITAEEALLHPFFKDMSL
Sequence of Cyclin-dependent kinase 8 (P49336 whole entry): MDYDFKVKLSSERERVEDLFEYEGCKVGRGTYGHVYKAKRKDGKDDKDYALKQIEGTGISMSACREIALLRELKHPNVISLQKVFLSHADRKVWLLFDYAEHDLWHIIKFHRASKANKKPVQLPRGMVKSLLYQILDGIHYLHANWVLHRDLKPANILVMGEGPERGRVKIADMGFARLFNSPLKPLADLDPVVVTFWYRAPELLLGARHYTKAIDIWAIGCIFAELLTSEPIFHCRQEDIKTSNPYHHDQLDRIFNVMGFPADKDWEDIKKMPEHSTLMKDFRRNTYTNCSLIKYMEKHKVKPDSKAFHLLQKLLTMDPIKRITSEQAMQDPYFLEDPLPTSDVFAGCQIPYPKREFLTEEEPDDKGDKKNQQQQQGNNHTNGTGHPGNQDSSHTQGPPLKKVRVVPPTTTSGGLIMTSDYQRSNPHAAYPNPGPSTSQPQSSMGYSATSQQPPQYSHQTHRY
Sequence of Cyclin-dependent kinase 19 (Q9BWU1 whole entry): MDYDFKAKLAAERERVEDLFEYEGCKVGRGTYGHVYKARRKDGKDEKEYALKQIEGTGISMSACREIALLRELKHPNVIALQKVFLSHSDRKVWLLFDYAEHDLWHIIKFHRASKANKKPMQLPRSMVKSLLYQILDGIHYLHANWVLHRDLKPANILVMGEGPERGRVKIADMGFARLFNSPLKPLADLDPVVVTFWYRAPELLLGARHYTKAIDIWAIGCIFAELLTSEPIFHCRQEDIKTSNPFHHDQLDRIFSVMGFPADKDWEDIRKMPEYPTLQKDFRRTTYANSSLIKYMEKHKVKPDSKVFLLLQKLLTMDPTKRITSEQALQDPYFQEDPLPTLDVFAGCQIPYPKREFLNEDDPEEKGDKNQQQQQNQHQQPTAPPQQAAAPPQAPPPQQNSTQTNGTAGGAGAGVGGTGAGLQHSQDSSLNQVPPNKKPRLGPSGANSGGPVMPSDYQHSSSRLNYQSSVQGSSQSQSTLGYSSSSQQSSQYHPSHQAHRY
Sequence of Beta Lactamase (Q932Y6 whole entry, the tested form may be a part): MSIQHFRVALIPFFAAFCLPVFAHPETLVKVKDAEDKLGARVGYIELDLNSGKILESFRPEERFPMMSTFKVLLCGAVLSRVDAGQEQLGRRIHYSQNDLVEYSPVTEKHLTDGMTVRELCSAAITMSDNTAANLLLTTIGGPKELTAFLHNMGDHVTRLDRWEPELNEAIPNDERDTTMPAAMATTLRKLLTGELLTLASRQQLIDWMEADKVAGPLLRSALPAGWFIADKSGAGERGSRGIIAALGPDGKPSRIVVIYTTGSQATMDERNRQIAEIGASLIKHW
Sequence of Neuropeptides B/W receptor type 1 (P48145 whole entry): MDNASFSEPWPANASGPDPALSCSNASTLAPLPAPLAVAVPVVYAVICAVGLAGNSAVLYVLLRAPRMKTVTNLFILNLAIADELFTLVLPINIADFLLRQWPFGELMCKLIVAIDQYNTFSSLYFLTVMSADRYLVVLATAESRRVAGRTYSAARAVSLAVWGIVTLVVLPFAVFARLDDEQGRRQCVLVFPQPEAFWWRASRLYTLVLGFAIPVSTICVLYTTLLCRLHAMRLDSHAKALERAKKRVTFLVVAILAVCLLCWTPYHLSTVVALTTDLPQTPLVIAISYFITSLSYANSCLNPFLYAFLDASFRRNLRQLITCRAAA
Sequence of DNA dC->dU-editing enzyme APOBEC-3A (P31941 whole entry): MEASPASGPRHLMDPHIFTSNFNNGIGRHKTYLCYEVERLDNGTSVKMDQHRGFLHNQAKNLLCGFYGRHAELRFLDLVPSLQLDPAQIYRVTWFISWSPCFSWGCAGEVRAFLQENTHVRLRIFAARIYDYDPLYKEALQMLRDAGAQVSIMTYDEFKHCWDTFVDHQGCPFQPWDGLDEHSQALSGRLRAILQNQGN
Sequence of Casein kinase I isoform alpha (P48729 whole entry, canonical isoform): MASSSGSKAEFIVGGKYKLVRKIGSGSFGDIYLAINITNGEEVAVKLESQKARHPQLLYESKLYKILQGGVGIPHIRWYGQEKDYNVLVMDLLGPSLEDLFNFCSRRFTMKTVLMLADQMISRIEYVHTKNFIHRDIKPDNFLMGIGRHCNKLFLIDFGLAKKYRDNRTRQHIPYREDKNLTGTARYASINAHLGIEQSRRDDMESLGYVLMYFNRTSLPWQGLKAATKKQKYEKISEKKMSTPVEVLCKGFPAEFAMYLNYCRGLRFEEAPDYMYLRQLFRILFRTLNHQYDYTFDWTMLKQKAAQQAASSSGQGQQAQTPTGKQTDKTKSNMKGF

Cc1ccc(S(=O)(=O)/N=C/c2cc(Br)ccc2O)cc1
EC50 (Insulin-degrading enzyme [1]): > 54.7 µM (inactive)
EC50 (HEK293 [2]): > 54.7 µM (inactive)
EC50 (Insulin-degrading enzyme [3]): > 54.7 µM (inactive)
IC50 (HEK293 [4]): > 89.1 µM (inactive)

COc1ccccc1N1C(=O)C2C(C(=O)c3ccccc3)=NN(c3ccccc3)C2C1=O (stereo not drawn)
EC50 (Caspase-7): > 85.3 µM (inactive)
IC50 (Beta Lactamase): 9.37 µM (active)
IC50 (CHO): > 49.8 µM (inactive)
EC50 (Caspase-3): > 85.3 µM (inactive)

CSc1cccc(NC(=O)C2CCCN2S(=O)(=O)c2ccc(Br)s2)c1 (stereo not drawn)
IC50 [5]: 0.0933 µM (active)
IC50 (Orexin receptor type 2 [6]): 0.34 µM (active)
IC50 (CHO-K1): > 66.2 µM (inactive)
IC50 [7]: 27.8 µM (inactive)
IC50 [8]: 0.8 µM (active)
IC50 (Orexin receptor type 2 [9]): 0.4 µM (active)

Cc1ccc2c(c1)/C(=C1\C(=O)Nc3ccccc31)C(=O)N2C
AC50 [10]: 8.85 µM (active)
CC50 [11]: 4.76 µM (active)
IC50 (cells): 1.89 µM (active)
CC50 [12]: 12.9 µM (active)
CC50 [13]: 27 µM (active)
CC50 [14]: 16.3 µM (active)
CC50 [15]: 13.4 µM (active)
CC50 [16]: 4.55 µM (active)
AC50 [17]: 12.1 µM (active)

CC(C)(C)OC(=O)C(C#N)c1c(Cl)cnn(Cc2cccc3ccccc23)c1=O (stereo not drawn)
IC50 [18]: 0.682 µM (active)
IC50 [19]: 0.682 µM (active)

COc1cc2c(c3oc(=O)c4c(c13)CCC4)C=CC(C)(C)O2
IC50 [20]: > 99 µM (inactive)
IC50 [21]: > 99 µM (inactive)

O=C(O)c1ccccc1Nc1ccnc(NCc2ccccc2)n1
Ki [22]: > 100 µM (inactive)
Ki [23]: 0.0501 µM (active)

CC(C)(C)c1cc(NC(=O)C(=O)c2cccc3ccccc23)n(-c2ccc(OCCC(N)=O)cc2)n1
Ki [24]: 2 µM (active)
Ki [25]: > 6.31 µM (inactive)
Ki [26]: 3.98 µM (active)
Ki [27]: 1.58 µM (active)
